How the values were obtained:
[1] = Sensory evaluation of degradation component-added shortening I ((E)-2-octenal 500 ppb); conditions: average panel score
Description: (§1) To commercially available shortening (“Pampas LTR30” manufactured by Fuji Oil Co., Ltd.), each degradation component was added to prepare degradation component-added shortenings I and II at the concentrations listed in Table 17. To these degradation component-added shortenings, β-ionone was added at the concentrations listed in Table 18 to confirm the intensity of the off-flavor (masking effect) and the intensity of the masking components (impact on the flavor of the shortening itself) for each sample.
Eight experienced panelists were selected to conduct a sensory evaluation similar to that of Example 1. […]

[2] = Sensory evaluation of degradation component-added shortening II (1,5-octadien-3-one 1 ppb); conditions: average panel score
Description: as §1
(§2) Eight experienced panelists were selected to conduct a sensory evaluation similar to that of Example 1.
(§3) The same method as in Example 16 was used to confirm the intensity of the off-flavor (masking effect) derived from unsaturated fatty acids by β-damascenone and the intensity of the masking components (impact on the flavor of the shortening itself).

[3] = Overall conclusion of the sensory evaluation across shortenings I and II
Description: as §1, §2, §3

[4] = Sensory evaluation of degradation component-added mayonnaise II (1,5-octadien-3-one 5 ppm)
Description: To commercially available mayonnaise (“Kewpie Mayonnaise” manufactured by Kewpie Corporation), each degradation component was added to prepare degradation component-added mayonnaises I and II at the concentrations listed in Table 20. To these degradation component-added mayonnaises, oleic acid was added at the concentrations listed in Table 21 to confirm the intensity of the off-flavor (masking effect) and the intensity of the masking components (impact on the flavor of the mayonnaise itself) for each sample.
Six experienced panelists were selected to conduct a sensory evaluation similar to that of Example 1.
To the degradation component-added mayonnaise II listed in Table 20, menthyl 3-hydroxybutyrate was added at the concentrations listed in Table 22 to confirm the intensity of the off-flavor (masking effect) and the intensity of the masking component (impact on the flavor of the mayonnaise itself) for each sample.

SMILES	Masking Component Intensity ([1]; 1 ppb added)	Off-Flavor Intensity ([1]; 1 ppb added)	Masking Component Intensity ([1]; 1 ppt added)	Off-Flavor Intensity ([1]; 1 ppt added)	Masking Component Intensity ([1]; 10 ppb added)	Off-Flavor Intensity ([1]; 10 ppb added)	Masking Component Intensity ([1]; 10 ppt added)	Off-Flavor Intensity ([1]; 10 ppt added)	Masking Component Intensity ([1]; 100 ppt added)	Off-Flavor Intensity ([1]; 100 ppt added)	Masking Component Intensity ([2]; 1 ppb added)	Off-Flavor Intensity ([2]; 1 ppb added)	Masking Component Intensity ([2]; 1 ppt added)	Off-Flavor Intensity ([2]; 1 ppt added)	Masking Component Intensity ([2]; 10 ppb added)	Off-Flavor Intensity ([2]; 10 ppb added)	Masking Component Intensity ([2]; 10 ppt added)	Off-Flavor Intensity ([2]; 10 ppt added)	Masking Component Intensity ([2]; 100 ppt added)	Off-Flavor Intensity ([2]; 100 ppt added)	other results
C/C=C/C(=O)C1=C(C)C=CCC1(C)C [β-Damascenone, β-damascenone]	2.9	1.8	1.1	3.1	3.1	1.1	1.5	2.6	2.1	2.3	2.5	2.3	0.9	3.4	2.6	2.0	1.3	3.0	1.9	2.5	concentration that masks the off-flavor and does not affect the flavor of the shortening itself, upper limit [3]: ≤ 10 ppb
CC(=O)/C=C/C1=C(C)CCCC1(C)C [β-Ionone, β-ionone]	2.1	1.5	0.6	3.1	2.6	1.1	1.1	2.6	1.8	2.4	1.9	2.4	0.4	3.6	2.3	2.0	0.9	3.4	1.5	2.8	concentration that masks the off-flavor and does not affect the flavor of the shortening itself, lower limit [3]: ≥ 10 ppt; concentration that masks the off-flavor and does not affect the flavor of the shortening itself, upper limit [3]: ≤ 10 ppb
CC(O)CC(=O)OC1CC(C)CCC1C(C)C (stereo not shown) [menthyl 3-hydroxybutyrate]	–	–	–	–	–	–	–	–	–	–	–	–	–	–	–	–	–	–	–	–	concentration that masks the off-flavor and does not affect the flavor of the mayonnaise itself, lower limit [4]: ≥ 100 ppt; concentration that masks the off-flavor and does not affect the flavor of the mayonnaise itself, upper limit [4]: ≤ 100 ppm; Masking Component Intensity ([4]; 1 ppb added): 0.2; Off-Flavor Intensity ([4]; 1 ppb added): 3.0; Masking Component Intensity ([4]; 1 ppm added): 0.6; Off-Flavor Intensity ([4]; 1 ppm added): 0.8; Masking Component Intensity ([4]; 10 ppb added): 0.2; Off-Flavor Intensity ([4]; 10 ppb added): 2.2; Masking Component Intensity ([4]; 10 ppm added): 1.0; Off-Flavor Intensity ([4]; 10 ppm added): 0.6; Masking Component Intensity ([4]; 50 ppm added): 1.6; Off-Flavor Intensity ([4]; 50 ppm added): 0.6; Masking Component Intensity ([4]; 100 ppb added): 0.4; Off-Flavor Intensity ([4]; 100 ppb added): 1.6; Masking Component Intensity ([4]; 100 ppm added): 2.0; Off-Flavor Intensity ([4]; 100 ppm added): 0.6; Masking Component Intensity ([4]; 100 ppt added): 0.2; Off-Flavor Intensity ([4]; 100 ppt added): 3.0

Reference: US20250176599A1, “FLAVOR COMPOSITION AND FOOD AND BEVERAGE” (TAKASAGO INTERNATIONAL CORPORATION, priority 2021, published 2025)
